Laboratory results from patent publication US20250205188A1, “TREATMENT OR PREVENTION OF RESPIRATORY DISEASES CHARACTERISED BY, OR INVOLVING, LUNG FIBROSIS” (IMPERIAL COLLEGE INNOVATIONS LIMITED, priority 2022, published 2025).

Legend:
[1] = tested on: Human lung fibroblast cells; assay: RT-PCR gene expression in TGFβ fibrosis model of human lung fibroblast cells; type: cell-based; details: 10 mM for 1 hour, then 2 ng/mL TGFβ 24 hours, relative to untreated cells; for gene expression of Col1α1: FIG. 2A; for gene expression of FN1: FIG. 2B; for gene expression of CTGF: FIG. 2C
Description: Primary human lung fibroblasts were isolated from lung resections of patients undergoing lung cancer surgery or lung transplantation performed after informed consent as approved by an external Research Ethics Committee (REC 15/SC0101) according to Royal Brompton Hospital protocol (Royal Brompton & Harefield NHS Foundation Trust, 2016). Fibroblasts from healthy individuals were also purchased from Lonza (Lonza, Basel, Switzerland).
Real Time PCR After treatment, the supernatant liquid was removed from cell cultures and RLT buffer containing 1% beta-mercaptoethanol was added to each well and then was frozen for later analysis. RNA extraction of cells was performed using the RNeasy Plus Mini Kit (QIAGEN), according to the manufacturer's protocol. Samples were defrosted at room temperature and centrifuged. The homogenate was transferred onto RNeasy MinElute spin columns and purified. RNA was reverse-transcribed into cDNA using the High-Capacity cDNA Reverse Transcription Kit (ThermoFisher) according to the manufacturer's instructions. Real-time PCR was performed using fast-qPCR mastermix (QIAGEN) on a Viia-7 instrument (Applied Biosciences) with Taqman primers for human genes, namely acod1, cd163, fn1, IL-1β, mmp1, mmp9 using actb (Life Technologies) as housekeeping gene.
Fibroblasts are the principal effector cell during lung fibrosis and the main source of the excessive extracellular matrix deposition seen during the disease. To explore the anti-fibrotic properties of itaconate analogues in human fibroblast cells, qPCR experiments were undertaken. Human lung fibroblast cells were seeded (10,000 cells/well) in a 48-well plate and were incubated with ICL-PO, ICL-2, ICL-3, ICL-4, ICL-6, itaconate, dimethyl itaconate, sodium itaconate and dimethyl malonate for 1 hour, after which the supernatant liquid was removed. The healthy fibroblasts were then incubated with 2 ng/mL transforming growth factor beta (TGFβ) for 24 hours in order to mimic pulmonary fibrosis. TGFβ is activated in fibrotic diseases and plays a key role in mediating fibrotic tissue. After treatment, RNA extraction of the cells was performed and 10 μg RNA per sample was reverse transcribed into cDNA. RT-PCR was performed with TaqMan primers for Col1α1, connective tissue growth factor (CTGF) and fibronectin (FN1) human genes. The results are shown in FIG. 2—(A) Gene expression of COL1A1 relative to two housekeeping genes (bactin and Beta-2-Microglobulin-averaged to make a ‘pooled’ control); (B) Gene expression of FN1 relative to housekeeping gene; and (C) Gene expression of CTGF relative to housekeeping gene.

[2] = tested on: human lung fibroblasts; details: exogenous itaconate added to cultures; cited from earlier work
[3] = tested on: lung fibrosis in mice; details: inhaled (particularly oropharyngeal inhalation); cited from earlier work
[4] = tested on: Healthy primary human lung fibroblasts; assay: Seahorse glycolytic stress test (ECAR); type: cell-based; details: 0.1 mM, 1 mM and 10 mM for 1 hour, then with or without 2 ng/ml TGF-β1 24 hours; FIGS. 4 and 5
Description: Healthy primary human lung fibroblasts (10,000 per well) were seeded in a seahorse plate pre-coated with Cell Tak (BD Biosciences, Oxford, UK). After an overnight incubation, fibroblasts were treated with different itaconate analogues for 1 hour and they were subsequently incubated with or without 2 ng/ml TGF-β1 for 24 hours. XF medium (nonbuffered RPMI containing 2 mM glutamine, 1 mM pyruvate and 10 mM glucose, pH 7.4, Agilent, Santa Clara, USA) was used to measure Oxygen Consumption Rate (OCR) and Extracellular Acidification Rate (ECAR) with the XFp extracellular flux analyser. The Seahorse glycolytic Stress Test (Agilent, Santa Clara, USA) was utilized to measure OCR and ECAR at baseline. Healthy primary human lung fibroblasts (10,000 per well) were seeded in a seahorse plate pre-coated with Cell Tak (BD Biosciences, Oxford, UK). After an overnight incubation, fibroblasts were treated with different concentrations (0.1 mM, 1 mM and 10 mM) of the itaconate analogues, citraconate or mesaconate, for 1 hour and they were subsequently incubated with or without 2 ng/ml TGF-β1 for 24 hours. XF medium (nonbuffered RPMI containing 2 mM glutamine, 1 mM pyruvate and 10 mM glucose, pH 7.4, Agilent, Santa Clara, USA) was used to measure an Extracellular Acidification Rate (ECAR) with the XFp extracellular flux analyser for the citraconate assay (FIG. 4) or mesaconate assay (FIG. 5). […]

Structure (SMILES) | gene expression of Col1α1 [1] | gene expression of FN1 [1] | gene expression of CTGF [1] | proliferation of human lung fibroblasts [2] | wound healing of human lung fibroblasts [2] | lung fibrosis [3] | Extracellular Acidification Rate (ECAR) [4]
C=C(CC(=O)OC)C(=O)OC [dimethyl itaconate] | decreased gene expression | decreased gene expression | decreased gene expression | – | – | – | –
C=C(CC(=O)O)C(=O)O [itaconate, 2-methylidenebutanedioic acid, reference compound] | decreased gene expression | decreased gene expression | decreased gene expression | limits | limits | ameliorates lung fibrosis | –
C=C(CC(=O)O)C(=O)N(C)C [ICL-2, Sodium 3-(dimethylcarbamovl)-3-methvlidenepropanoate] | decreased gene expression | decreased gene expression | decreased gene expression | – | – | – | –
COC(=O)CC(=O)OC [dimethyl malonate, reference compound] | decreased gene expression | decreased gene expression | decreased gene expression | – | – | – | –
C/C(=C\C(=O)O)C(=O)O [mesaconate] | – | – | – | – | – | – | concentration dependent reduction in ECAR
C=C(CC(=O)N(C)C)C(=O)O [ICL-PO, 3-(dimethylcarbamoyl)-2-methvlidenepropanoic acid] | decreased gene expression | decreased gene expression | decreased gene expression | – | – | – | –
C=C(CC(=O)[O-])C(=O)[O-].[Na+].[Na+] [sodium itaconate, reference compound] | decreased gene expression | decreased gene expression | decreased gene expression | – | – | – | –
C/C(=C/C(=O)O)C(=O)O [citraconate] | – | – | – | – | – | – | concentration dependent reduction in ECAR
C/C=C(\CC(=O)O)C(=O)O [ICL-3, (2E)-2-ethylidenebutanedioic acid] | decreased gene expression | decreased gene expression | decreased gene expression | – | – | – | –
C=C(CC(=O)OC(C)(C)C)C(=O)OC(C)(C)C [ICL-4, Bis(2-methyl-2-propanyl)-2-methylenesuccinate] | decreased gene expression | decreased gene expression | decreased gene expression | – | – | – | –
C=C(CC(=O)O)C(=O)OC [ICL-6, 3-(methoxycarbonyl)but-3-enoic acid] | decreased gene expression | decreased gene expression | decreased gene expression | – | – | – | –
